Assay results from patent US9341619B2, “Hyposialylation disorders” (THE UNITED STATES OF AMERICA, as representated by the …, priority 2013, dated 2016).

Tested on: sialylation of core 1 O-linked glycans of plasma glycoproteins (T/ST ratio)
Test: Plasma T/ST ratio (T-antigen to monosialylated ST-antigen) by LC-MS/MS in treated GNE myopathy patients
Type: in vivo, human
Procedure: The quantification of the T/ST ratio was carried out using the O-glycan quantification methods disclosed in Liu et al. Mol Genet Metab 106, 442-454 (2012). Briefly, O-linked glycans from human serum or plasma total glycoproteins were released by sodium hydroxide with sodium borohydrate and desalted by ion-exchange column and then permethylated before the quantity of T-antigen and monosialyl ST-antigen was measured using LC-MS/MS method. Plasma samples from 40 normal controls were used to establish the normal range for the T/ST ratio at <0.056. A cut-off of 0.06 was used to diagnose hyposialylation of O-linked protein glycosylation in human plasma or serum.
O-glycans were released from plasma glycoproteins and prepared for analysis essentially as described by Carlson (J Biol Chem 243: 616-626, 1968; Liu et al. Mol Genet Metab 106, 442-454 (2012)), with modifications as described. An internal standard (1250 pmol raffinose in 5 μL) was added to 10 μL of plasma and 65 μl water for a final volume of 100 μL. Next, 100 μL of freshly prepared 2M […] in 0.1M sodium hydroxide was added to denature the serum proteins and release the O-glycans; the mixture was incubated at 45° C. for 16 hours to ensure complete reaction. The reaction was neutralized by drop wise addition of 1.6 mL of a 0.25M acetic acid-methanol solution, and the O-glycans were extracted in methanol. […]

## CC(=O)N[C@H]1[C@@H](O)[C@H](O)[C@@H](CO)O[C@H]1O [ManNAc, N-acetyl-D-mannosamine]
One GNE myopathy patient (SIA79) self-administering off-label ManNAc, abnormal range 0.06 or higher
  T/ST ratio range under ManNAc: normal range

## CC(=O)N[C@@H]1C(O)C[C@](O)(C(=O)O)OC1[C@H](O)[C@H](O)CO (stereo in doubt) [sialic acid, N-acetylneuraminic acid]
One GNE myopathy patient (NH00016), sialic acid received one month before the test, cut-off 0.06
  T/ST ratio after sialic acid treatment: 0.05
